Data reported in patent US20240307340A1, “IMMUNOSUPPRESSIVE PHARMACEUTICAL COMPOSITION INCLUDING BENZENE DERIVATIVE AS IMMUNOSUPPRESSANT” (INJE UNIVERSITY INDUSTRY-ACADEMIC COOPERATION FOUNDATION, priority 2021, published 2024).

Legend:
[1] = test system: T lymphocyte cell line Jurkat E6-1; experiment: Cytotoxicity (CCK-8 viability); assay type: cell-based; conditions: 20 h culture
Protocol: The cytotoxicities of the compounds of Examples 1-19 and Comparative Examples 1-3 to T lymphocyte cell line Jurkat E6-1 provided from the Korea Cell Line Bank were measured using a cell counting kit (CCK-8, Dojindo). After the cell line was allowed to grow in RPMI1640 medium supplemented with 10% FBS, 100 U/mL penicillin, and 100 μg/mL streptomycin, cells were plated in each well of a 96-well plate at a density of 2λ10^4 cells/well and treated with each of the compounds of Examples 1-19 and Comparative Examples 1-3. After culture in a 5% CO2 incubator at 37° C. for 20 h, CCK-8 solution was added to a concentration of 10%, followed by reculture in a 5% CO2 incubator at 37° C. for one and a half hours. The absorbance was measured at 450 nm (Reference: 650 nm) and was expressed in percent relative to the value […] from non-treated cells (viability 100%).
In Table 1, the number 100 corresponds to a viability of 100%.

[2] = test system: BALB/c mice with psoriasis induced by Aldara cream (imiquimod); experiment: Imiquimod-induced psoriasis model; assay type: in vivo; conditions: for psoriatic skin lesions (photographs, FIG. 49): 40 mg/kg intraperitoneal in 50 μL DMSO; for number of CD4 T cells in spleen (flow cytometry) / number of CD8 T cells in spleen (flow cytometry) / inflammatory cell infiltration (H&E staining of skin) / erythema / skin scaling / skin thickness: 40 mg/kg intraperitoneal; for number of CD4 T cells in spleen (flow cytometry) / number of CD8 T cells in spleen (flow cytometry): splenic T cells; for inflammatory cell infiltration (H&E staining of skin): versus negative control and DMSO group; for erythema / skin scaling / skin thickness: visual observation, P<0.05
Protocol: A test was conducted to evaluate the alleviation of psoriatic skin lesions using psoriasis animals. To this end, first, BALB/c mice (7 weeks old/20 g/female) purchased from Hana Biotech Co., Ltd., Korea were acclimated to the vivarium for a period of one week. After that, the hair on the back of the mice was shaved and completely removed with a depilatory cream (Niclean cream (thioglycolic acid […], Ildong Pharmaceutical Co., Ltd., Korea)). The animals were bred for 24 h. 80 mg of Aldara® cream (imiquimod 4 mg) was applied daily for 1 week (7 days, 7 times in total) to induce psoriasis, as shown in FIG. 49. Thereafter, 80 mg of Aldara® cream (imiquimod 4 mg) was continuously applied to each group for 10 days. During the administration, an observation was made as to whether psoriasis was alleviated. As a result, skin lesions were alleviated in the group administered the inventive compound than in the negative control or the DMSO-administered group, as shown in FIG. 49.
After the skin tissues of the test subjects were subjected to H&E staining according to the above schedule, the degrees of inflammatory cell infiltration were observed.
FIGS. 56 and 57 show the results of flow cytometry for the groups administered the compounds of Examples 14 and 17. The in vivo effects of the compounds of Examples 14 and 17 on T cells in the test subjects were investigated. To this end, the spleens were harvested from the mice administered each compound and T cells were extracted from the harvested spleens.

Compound | viability relative to non-treated cells, 10 μM (%) [1] [%] | viability relative to non-treated cells, 20 μM (%) [1] [%] | viability relative to non-treated cells, 30 μM (%) [1] [%] | psoriatic skin lesions (photographs, FIG. 49) [2] | number of CD4 T cells in spleen (flow cytometry) [2] | number of CD8 T cells in spleen (flow cytometry) [2] | inflammatory cell infiltration (H&E staining of skin) [2] | erythema [2] | skin scaling [2] | skin thickness [2]
CCCCCCNC(=O)c1ccccc1OC [Example 4] | 96 | 92 | 88 |  |  |  |  |  |  | 
CCCCCCCCCCCCNC(=O)c1ccccc1O [Example 7] | 82 | 79.3 | 66 |  |  |  |  |  |  | 
CCCCC(CC)CNC(=O)c1ccccc1F (centres unmarked) [Example 8] | 94.7 | 92.2 | 90.9 |  |  |  |  |  |  | 
CCCCC(CC)CNC(=O)c1ccccc1Br (centres unmarked) [Example 9] | 95.3 | 95.1 | 92.0 |  |  |  |  |  |  | 
CCCCCCCCCCNC(=O)c1ccccc1Br [Example 12] | 91 | 85.3 | 78.5 |  |  |  |  |  |  | 
C=CCCCCCCCCCNC(=O)c1ccccc1Br [Example 13] | 98.8 | 97.9 | 90.3 |  |  |  |  |  |  | 
CC(C)=CCC/C(C)=C/CNC(=O)c1ccccc1Br [Example 14] | 96.9 | 96.6 | 95.4 | alleviated | decreases | decreases | less inflammatory cell infiltration | significant decreases | significant decreases | significant decreases
C=CCCCCCCCCCNC(=O)c1ccccc1F [Example 15] | 88.8 | 91.2 | 93.5 |  |  |  |  |  |  | 
CC(C)=CCC/C(C)=C/CNC(=O)c1ccccc1F [Example 16] | 89.3 | 85.7 | 76.3 |  |  |  |  |  |  | 
CC(C)=CCC/C(C)=C/CC/C(C)=C/COC(=O)c1ccccc1Br [Example 17] | 73.6 | 72.1 | 72.7 | alleviated | decreases | decreases | less inflammatory cell infiltration | significant decreases | significant decreases | significant decreases
